Data taken from US20100112012A1, “MODULATION OF IMMUNE RESPONSES” (CLEVELAND CLINIC FOUNDATION, priority 2005, published 2010).
Entries after “also recorded” stand apart in the source; their conditions may differ.

Experiments:
histone H2A.X = experiment: Immunofluorescent detection of phosphorylated histone H2A.X; assay type: cell-based, human; details: HT1080 cells, 10 μM
Description: All washings were done with blocking solution.

[1] = test system: contact hypersensitivity (CHS) response; experiment: Hapten sensitization and elicitation of contact hypersensitivity; assay type: in vivo, BALB/c mice; details: 24 hours after challenge
Procedure: For sensitization to DNFB, mice were painted on days 0 and +1 with 25 ml of 0.25% 2,4-dinitrofluorobenzene (DNFB) (Sigma Chemical, Co.) on the shaved abdomen and 5 ml on each footpad. On day +5 sensitized and, as a negative control, unsensitized mice were challenged with 10 ml of 0.2% DNFB on both sides of each ear. Ear thickness was measured in a blinded manner at 24 h intervals after challenge using an engineer's micrometer (Mitutoyo, Elk Grove Village, Ill.) and expressed in units of 10^−4 inches. The magnitude of ear swelling responses is presented in FIG. 12 as the mean increase of each group of 4 sensitized or non-sensitized mice (i.e. […]) ±SEM over the thickness measured just prior to hapten challenge on day +5 post-sensitization. […] Control mice received injections with an equal volume of PBS.

Question: For `CCN(CC)CCCC(C)Nc1c2ccc(Cl)cc2nc2ccc(OC)cc12` (stereo not drawn) [QC, quinacrine], which “phosphorylation of histone H2A.X” value (histone H2A.X) is on record?
Answer: Neither 9AA nor QC induced phosphorylation of histone H2A.X

Question: What about the CHS/ear swelling response ([1]; quinacrine 80 mg/kg i.p. on days −2 and −1 (just prior to DNFB sensitization)) of the same compound?
Answer: inhibits the priming of antigen-specific T cells (FIG. 13) and the magnitude and duration of the allergic response elicited; also recorded: decreased the CHS/ear swelling response to near the level observed following challenge of non-immune, naïve mice

Question: What about the CHS/ear swelling response ([1]; quinacrine on days 0 and +1 (during DNFB sensitization)) of the same compound?
Answer: increased the magnitude and persistence of the antigen-specific T cell response; also recorded: increased the CHS response to the challenge
